The test system of one test is OVCAR-3 ovarian. Nature of the test: DTP human tumour cell line panel, 48 h.
A further test has as its system RXF 393 renal. The experiment in a line: DTP human tumour cell line panel, 48 h.

Consider one molecule from PubChem BioAssay (NCI).

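A five-concentration, 48-hour dose response in 96-well plates underlies each endpoint, interpolated linearly between surrounding concentrations. TGI: concentration producing complete growth inhibition.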 Bounds are passed on as bounds.

Consider `COC(=O)C1=C(C)N2CCCOC2(C)C(C(=O)OC)C1c1cccc(Cl)c1` (configuration not stated), for which the TGI was 70.8 µM with OVCAR-3 ovarian and more than 100 µM with RXF 393 renal.
